A short description of series [1]: Solubility of HDDS in esters of dibasic acids. It is filed as physicochemical.
A short description of series [2]: Ultraviolet radiation transmittance and SPF of sunscreen lotions, LABSPHERE Ultraviolet Transmittance Analyzer. How it is done: Sunscreen lotion compositions were made and tested for UV absorbance. A control sample sunscreen lotion was made without a compound of formula (I) and a test sample was made in accordance with the invention, using a compound of formula (I) wherein n is 6 (HDDS). Table 1 summarizes the composition of the control and HDDS sunscreen lotions, by wt. %.
To prepare the sunscreen lotions, the A phase ingredients were blended together and heated to 90° C. to dissolve the oxybenzone. Next, the B phase ingredients were added with stirring until homogeneous. In a separate vessel, EDTA was dissolved in water and heated to 85° C. A preblended mixture of preservative, butylene glycol, and glycerin was added to the EDTA/water solution. In a separate vessel, carbomer was dispersed in 50 g water and set aside. With homogenization, the A+B oil phase was added to the C water phase. Next, the pre-dispersed carbomer D phase was added to the A+B+C mixture. While maintaining the temperature at 85° C., the mixture was homogenized for about 10 minutes, and then removed from heat and stirred with a propellor while cooling. When the temperature was below 40° C., the neutralizer E was slowly added and the mixture was stirred until a smooth, homogeneous lotion resulted.
Ultraviolet radiation transmittance and SPF of the control and HDDS samples were measured over the range 290 to 400 nm using a LABSPHERE Ultraviolet Transmittance Analyzer. Five scans were performed on each sample. Critical Wavelength (nm) and SPF data are reported in Table 2 below for the control and HDDS samples.
The ordinate represents absorbance, in units log(base 10)*(1/transmittance (%)), and the abscissa represents wavelength in nanometers.

[3] abbreviates: HDDS in a sunscreen lotion versus control lotion.

The text below walks through data of US6355261B1, “Ultraviolet radiation absorbing waxes useful in cosmetic compositions” (priority 1999, dated 2002).

Molecules are shown by their SMILES.

As to `O=C(OCCCCCCOC(=O)c1ccccc1O)c1ccccc1O` [HDDS, hexanediol disalicylate], the “soluble in diisopropyl adipate” value in series [1] (solvent diisopropyl adipate) is given as “at least 5 % by weight”. Besides, the “soluble in dilsopropyl sebacate” value in series [1] (solvent dilsopropyl sebacate) is “at least 5 % by weight”. For the same molecule, the “soluble in dioctyl adipate” value in series [1] (solvent dioctyl adipate) was “at least 5 % by weight”. Further, the “soluble in dioctyl maleate” value in series [1] (solvent dioctyl maleate) was “at least 5 % by weight”. In addition, in series [1] (solvent dioctyl sebacate), the “soluble in dioctyl sebacate” value is “at least 5 % by weight”. In series [2] (FIG. 1, average of five scans, versus control sample), the “UV absorbance of the lotion” value is listed as “increases UV absorbance of the lotion at every wavelength of radiation measured”. In addition, in series [2] (setting [3]), the “SPF value of the lotion” value was “boosts the SPF value”; the “transmittance of UVA and UVB radiation” value was “reduces the transmittance of UVA and UVB radiation”.
